The values that follow come from US6645996B1, “Physiologically active substances” (Mercian Corporation and Eisai Co., Ltd., priority 1998, dated 2003).

For data set [1], the system named is angiogenesis induced by human colorectal cancer (WiDr cells). As to the kind of experiment: Antiangiogenic effect in vivo: chamber with WiDr cells transplanted to mouse, 51Cr-labeled erythrocytes. As to conditions: 1 mg/kg intraperitoneally once a day for 4 days. As to the method:
Whether angiogenesis induced by human colorectal cancer (WiDr cells) was inhibited by administering VD1207C or not was studied to examine the antiangiogenic effect of VD1207C in vivo.
A chamber in which the WiDr cells were sealed was transplanted to a mouse. Then VD1207C was administered intraperitoneally at each dose of 0.5, 1.0 and 2.0 mg/kg for 4 days once a day. The amount of angiogenesis induced by the tumor was measured quantitatively by measuring the radiao activity in the skin touching with the chamber as the amount of blood by statically injecting erythrocytes labeled by ^51Cr. In FIG. 1, vascular volume generated at each dose of VD1207C is shown.

A further data set relates to aorta pieces of rat. Nature of the data set: Inhibition of capillary formation in rat aorta model (aorta pieces cultured in collagen gel). It is filed as cell-based. As to conditions: 7th day from addition of sample. As to the method: In a method of screening the antiangiogenic effect, the degree of inhibition to the formation of lumens observed when an aortic fragment of a rat is cultured in a collagen gel was selected as an indicator (Nicosia R. F., Lab. Invest., 63, 115, 1990). Also, for the purpose of analyzing the mechanism of action of the antiangiogenic effect of the resulting compound, measurements were made concerning the effect of inhibiting the growth of endothelial cells by using endothelial cells derived from the human umbilical cord vein and the effect of inhibiting the expression of an adhesion molecules on endothelial cells.
The antiangiogenic potency was evaluated by the inhibition of capillary formation in rat aorta model in which aorta pieces of rat were cultured in collagen gel. That is, the aorta excised from male rat of Sprague-Dawley strain (8-12 weeks age) was washed with a Hanks' solution so that fat tissues around there were removed minutely. The aorta was incised to prepare pieces of 2 mm square and they were allowed to stand in a 24-well plate holding the endothelial cells upside. Then, 500 μl of neutralized Type I collagen (Cell Matrix Type I-A; manufactured by Nitta Gelatin) were poured over each well and allowed to stand at room temperature for about 20 minutes in a clean bench to solidify the gel. After gelling, 500 μl of MCDB 131 medium (manufactured by Chlorella Kogyo) were added thereto followed by incubating in a Co2 incubator (5% CO2) at 37° C. On the next day, the culture medium was exchanged with 500 μl of MCDB 131 medium containing the sample and the incubation was continued. And, at the stage of the 7th day from the addition of the sample, numbers of capillaries formed around the aorta were counted. The IC50 value of each sample is defined as a concentration that the number of blood capillaries is 50% of that observed when no sample was added.

Data set [2] in a line: Safety of VD1207 analogues, intraperitoneal administration over 4 days. Also noted: key to Blood (WBC) / Blood (PLAT) / Biochemistry (UN) / Biochemistry (GPT) / Weight (liver) / Weight (kidney) / Weight (lung) / Weight (spleen) / Body weight / Blood (RBC): —: “-” indicates no abnormality; “↑” and “↓” indicate an increase and a decrease, respectively; “↑” and “↓” indicate an increase and a decrease, respectively. Conditions: for Weight of each of the liver, kidney and lung (autoptic findings): 1 mg/kg and 2 mg/kg i.p. 4 days. The class given is in vivo. The procedure: Each of VD1207B, C, D, E, F and G2 was continuously administered intraperitoneally at each dose of 1 mg/kg and 2 mg/kg over 4 days to examine the safety of VD1207 analogues.

For data set [3], the system named is Endothelial cells derived from human umbilical vein (HUVEC). As to the kind of experiment: Inhibitory effect of growth of endothelial cells (MTT method). It is filed as cell-based. As to conditions: three days. As to the method: Endothelial cells derived from human umbilical vein (HUVEC; manufactured by Sanko Junyaku) incubated in an EGM medium (manufactured by Sanko Junyaku) were adjusted to 1×10^4 cells/ml and each 100 μl were separately placed on a 96-well plate. After incubating overnight, 100 μl of medium containing sample were added thereto followed by incubating for three days. The cell numbers at that time were measured by MTT method. That is, 50 μl of PBS solution containing 0.33% of 3-(4,5-dimethylthiazol-2-yl)-2,5-diphenyltetrazolium bromide (MTT) was added thereto and incubation was continued for further 3-4 hours. After the supernatant liquid of the culture was removed, 100 μl of DMSO was added to dissolve a formazane which was formed in the cells and the absorbance at the wave length of 460 nm was measured by use of plate reader. The IC50 value is defined as a concentration that the absorbance was 50% of that observed when no sample was added.
(In general: Formazan colour is commonly taken as a measure of viable cells.)

Another data set concerns VCAM-1. As to the kind of experiment: Inhibition of TNFα-induced expression of adhesion molecule VCAM-1 on endothelial cells. It is filed as cell-based, human. Conditions: HUVEC, TNFα 1 ng/ml, 4 hours. As to the method: (§1) Endothelial cells derived from human umbilical vein (HUVEC) were cultured on a 96-well plate until they were fallen in a confluent state. The culture broth was removed. After 150 μl of a new culture broth was added to each well, 20 μl of a sample solution was added thereto. After 15 minutes, 30 μl of TNFα was added such that the final concentration became 1 ng/ml and it was incubated at 37° C. for 4 hours in a 5% CO2 incubator. Next, the culture broth was removed and the cells were washed twice with a phosphate buffer (PBS). Further, a PBS solution containing 0.025% glutaraldehyde was added and the well was allowed to stand at room temperature for 6 minutes to fix the cells. After the cells were immobilized, they were washed twice with 200 μl of phosphate buffer (PBSA) containing 0.25% BSA. Thereafter 100 μl of a PBSA solution containing 1 μg/ml of mouse anti-human VCAM-1 (R&D systems) or a mouse anti-human E-selectin antibody (R&D systems) was added to each well. The well was allowed to stand at room temperature for 30 minutes and then the cells were again washed. A PBSA solution containing 100 μl of peroxidase-conjugated goat anti-mouse antibody (Cosmo Bio Co., Ltd.) was added to the well. Then the well was allowed to stand at room temperature for 30 minutes and thereafter the cells were washed. In succession, 100 μl of 3,3*,5,5*-tetramethylbenzyidine (TMB) substrate solution was added to develop a color. Next, the coloring was stopped by 100 μl of 1M phosphoric acid to measure the absorbance at 450 nm.

The next data set deals with E-selectin. As to the kind of experiment: Inhibition of TNFα-induced expression of adhesion molecule E-selectin on endothelial cells. It is filed as cell-based, human. As to conditions: HUVEC, TNFα 1 ng/ml, 4 hours. As to the method: as §1
In data set [4] the test system is mouse colon cancer (Colon 38-OT-7). Nature of the data set: Anti-metastatic effect: hepatic metastasis of mouse colon cancer transplanted to caecum. The class given is in vivo. As to conditions: for Toxic death: n 8. The procedure: The mouse colon cancer (Colon 38-OT-7) having a high incidence of the hepatic metastasis was transplanted to the mouse caecum. Then VD1207C was administered intraperitoneallyat each dose of 0.5, 1.0 and 2.0 mg/kg once a day since 12 days after the transplantation.

Data set [5] in a line: Solubility (analysis data). It is filed as physicochemical.
In the next data set the test system is collagen arthritis model. Conditions: Peacock D J., J. Exp. Med. 175, 1135-8, 1992; cited from earlier work.
Setting [6] is: 1 mg/kg i.p. 4 days, listed as C.
[7] abbreviates: 2 mg/kg i.p. 4 days, listed as C.
[8] abbreviates: 2 mg/kg i.p. 4 days, listed as F.

Some results are limits rather than exact numbers.

As to `CCCC(C(=O)c1cc(C(OC)C(C)C)c(O)c(C=O)c1O)C1CC(O)C2(OC2CC)C(O)O1` (single isomer, unassigned) [VD1207 C], in data set [1], the “Angiogenesis induced by WiDr cells (vascular volume)” value is reported as “inhibited with a significant difference”. Moreover, the “IC50 (number of blood capillaries 50% of that without sample)” value in the data set with aorta pieces of rat (listed as C) was determined as 0.050 µg/mL. In [2], the “Weight of each of the liver, kidney and lung (autoptic findings)” value is “increase”. Moreover, in data set [2] (1 mg/kg i.p. 4 days), the “Biochemistry (GPT)” value is listed as “—”, the “Biochemistry (UN)” value is given as “—”, the “Blood (PLAT)” value is reported as “—” and the “Blood (RBC)” value is reported as “—”. Also, in [2] (1 mg/kg i.p. 4 days), the “Blood (WBC)” value was “—”; the Body weight entry was “—”; the “Change in weight (FIGS. 2a and 2b)” value is on record as “inhibition to an increase in weight”; the “Weight (liver)” value is recorded as “↑”. Moreover, the “Weight (spleen)” value in data set [2] (1 mg/kg i.p. 4 days) is recorded as “—”. In addition, in data set [2] (setting [6]), the “Weight (kidney)” value is listed as “↑” and the “Weight (lung)” value is recorded as “↑”. The “Change in weight (FIGS. 2a and 2b)” value in data set [2] (2 mg/kg i.p. 4 days) is “reduction in weight”. In [2] (setting [7]), the “Blood (PLAT)” value was “↓”, the Body weight result is “↓”, the “Weight (kidney)” value is on record as “↑” and the “Weight (lung)” value was “↑”. In addition, the “IC50 (growth of endothelial cells, absorbance 50% of no sample)” value in data set [3] (listed as C) is 0.08 µg/mL. For the same compound, the “VCAM-1 (IC50 of expression)” value with VCAM-1 (listed as C) worked out at 0.85 µg/mL. Moreover, the “E-select (IC50 of expression)” value in the data set with E-selectin (listed as C) amounted to 1.23 µg/mL. Also, in [4] (0.5 mg/kg i.p. once a day), the Hepatic metastasis incidence is 5/7; the “No. of metastatic nodules (mean ± STD)” value is listed as “(9.7 ± 12.2)”; the “No. of metastatic nodules, median” value came to 1.0; the Toxic death came to 1. Besides, in data set [4] (1.0 mg/kg i.p. once a day), the Hepatic metastasis incidence is 3/6; the “No. of metastatic nodules (mean ± STD)” value is recorded as “(1.2 ± 1.6)”; the “No. of metastatic nodules, median” value worked out at 0.5; the Toxic death stood at 2. Moreover, in [4] (2.0 mg/kg i.p. once a day), the Hepatic metastasis incidence is recorded as 0/5; the “No. of metastatic nodules (individual animals)” value is listed as “no metastatic nodules was observed at all”; the “No. of metastatic nodules, median” value is 0; the Toxic death is given as 3. The “Number of the metastatic nodules” value in [4] (dose ranging from 0.5 mg/kg) is “decreased the number of the metastatic nodules”. For the same compound, in data set [5], the “Solubility in ethyl acetate, chloroform and dimethyl sulfoxide” value (shortened to “Solubility in ethyl acetate”) is reported as “soluble”; the “Solubility in neutral water” value is on record as “insoluble”.
As for `CCC1OC12C(O)CC(C(CC(C)C)C(=O)c1cc(C(OC)C(C)C)c(O)c(C=O)c1O)OC2O` (single isomer, unassigned) [VD1207 F], the “IC50 (number of blood capillaries 50% of that without sample)” value with aorta pieces of rat (listed as F) is 0.067 µg/mL. Also, the “Weight of each of the liver, kidney and lung (autoptic findings)” value in data set [2] is on record as “increase”. Also, in data set [2] (1 mg/kg i.p. 4 days), the “Blood (WBC)” value is listed as “—” and the “Weight (lung)” value is “—”. In data set [2] (1 mg/kg i.p. 4 days, listed as F), the “Weight (kidney)” value was “↑”. For the same compound, in data set [2] (2 mg/kg i.p. 4 days), the “Biochemistry (GPT)” value is given as “—”, the “Biochemistry (UN)” value was “—”, the “Blood (PLAT)” value is reported as “—” and the “Blood (RBC)” value is “—”. Also, in [2] (2 mg/kg i.p. 4 days), the “Blood (WBC)” value is on record as “↓”, the Body weight result is listed as “—”, the “Weight (liver)” value is “↑” and the “Weight (spleen)” value is “—”. Also, in data set [2] (setting [8]), the “Weight (kidney)” value is on record as “↑” and the “Weight (lung)” value is reported as “↑”. Moreover, in data set [3] (listed as F), the “IC50 (growth of endothelial cells, absorbance 50% of no sample)” value stood at 0.06 µg/mL. Moreover, the “VCAM-1 (IC50 of expression)” value with VCAM-1 (listed as F) was below 0.63 µg/mL. The “E-select (IC50 of expression)” value with E-selectin (listed as F) amounted to 0.84 µg/mL. In data set [5], the “Solubility in ethyl acetate” value was “soluble”; the “Solubility in neutral water” value is “insoluble”.
Take `CO[C@@H]1[C@H](OC(=O)NC(=O)CCl)CC[C@]2(CO2)[C@H]1[C@@]1(C)O[C@@H]1CC=C(C)C` [AGM-470]: the “Arthritis in a collagen arthritis model” value with collagen arthritis model is listed as “inhibits arthritis”.
With `CCCC(C(=O)c1cc(CC(C)C)c(O)c(C=O)c1O)C1CC(O)C2(OC2CC)C(O)O1` (stereo not drawn) [VD1207 D], the “IC50 (number of blood capillaries 50% of that without sample)” value in the data set on aorta pieces of rat was 0.019 µg/mL. Moreover, in [2] (1 mg/kg i.p. 4 days), the “Biochemistry (GPT)” value was “—”, the “Biochemistry (UN)” value was “—”, the “Blood (PLAT)” value is listed as “—” and the “Blood (RBC)” value is given as “—”. For the same compound, in data set [2] (1 mg/kg i.p. 4 days), the “Blood (WBC)” value was “—”, the Body weight result is “—”, the “Weight (kidney)” value is “—” and the “Weight (liver)” value is “↑”. Also, in data set [2] (1 mg/kg i.p. 4 days), the “Weight (lung)” value is “—” and the “Weight (spleen)” value is “—”. Further, in data set [2] (2 mg/kg i.p. 4 days), the “Biochemistry (GPT)” value is reported as “—”, the “Biochemistry (UN)” value was “—”, the “Blood (PLAT)” value is recorded as “—” and the “Blood (RBC)” value was “—”. In [2] (2 mg/kg i.p. 4 days), the “Blood (WBC)” value was “—”, the Body weight entry is recorded as “—”, the “Weight (kidney)” value is reported as “—” and the “Weight (liver)” value is recorded as “↑”. Besides, in data set [2] (2 mg/kg i.p. 4 days), the “Weight (lung)” value is recorded as “—” and the “Weight (spleen)” value was “—”. Besides, the “IC50 (growth of endothelial cells, absorbance 50% of no sample)” value in data set [3] was 0.18 µg/mL. In addition, in the data set with VCAM-1, the “VCAM-1 (IC50 of expression)” value is 1.11 µg/mL. Further, the “E-select (IC50 of expression)” value in the data set with E-selectin stood at 1.40 µg/mL. Further, in data set [5], the “Solubility in ethyl acetate” value is listed as “soluble”; the “Solubility in neutral water” value was “insoluble”.
